≈ marks a conversion by molar mass, not a printed value. Read-outs that look alike come from different tables or passages of the source.

For experiment [1], the system named is rat aorta fragments. Description: In vitro angiogenesis inhibition assay. It is filed as cell-based. As to conditions: inhibitor 100 μg/ml, control 90. How it is done:
The ability of linked cyclitol compounds to inhibit angiogenesis in vitro was conducted using the assay essentially as described in the present applicant's International Patent Application No. PCT/AU95/00105 (Publication No. WO 95/23968), the entire content of which is incorporated herein by cross reference. The only changes to the procedure described in PCT/AU95/00105 were that the assays were conducted using rat aorta fragments rather than human placental vessel fragments.
All potential inhibitors were tested at 100 μg/ml with PI-88 also being tested at 10 μg/ml. The tabulated data represent means of 4 culture wells for each experiment. Significant inhibition of angiogenesis is indicated with a single asterisk while double asterisks denote highly significant inhibition.
The compounds were also tested at the same purity as in Example 15 save that the second entries for 4b and 4j relate to data obtained with higher purity compounds than the compounds used for the first data entries of each.

Experiment [2] concerns the target bFGF (Homo sapiens, UniProt P09038). Description: Biacore biosensor: inhibition of bFGF binding to immobilised heparin and heparan sulfate. The settings on record: for Inhibition of binding of bFGF (HS) / Inhibition of binding of bFGF (Hep): inhibitor 0.034 μM, bFGF 0.034 μM. The method in brief: (§1)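 Biotinylated heparin (1 μg/ml) or heparan sulfate was captured on neutravidin-coupled CM5 biosensor chips. Test compound and growth factor were preincubated 2 to 5 min, then growth-factor binding to the immobilised glycosaminoglycan was monitored for about 5 min; values are IC50 (μM) or % inhibition of binding.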
Background: In SPR one partner is held on a chip, and binding of the other changes the refractive index at the surface.

Experiment [3] addresses T1, human leukocyte Cathepsin G (Homo sapiens, UniProt P08311).
T1 construct: human leukocyte Cathepsin G (100 ng protein); from tissue; host or cells: human leukocytes
T1 sequence (P08311 21-244): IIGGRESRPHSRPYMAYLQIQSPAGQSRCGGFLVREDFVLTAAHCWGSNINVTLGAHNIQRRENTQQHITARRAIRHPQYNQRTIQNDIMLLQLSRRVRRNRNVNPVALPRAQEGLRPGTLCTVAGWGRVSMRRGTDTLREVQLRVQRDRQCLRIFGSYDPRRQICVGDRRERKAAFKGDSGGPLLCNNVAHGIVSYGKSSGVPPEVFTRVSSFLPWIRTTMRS
Description: Cathepsin G inhibition, fluorogenic substrate, 96 well assay. It is filed as biochemical. As to conditions: human leukocyte cathepsin G 100 ng, 37° C., 60 min, pH 6.6. The procedure, abridged:
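Inhibitor mixed with fluorogenic substrate MeOSuc-ala-ala-pro-phe-AMAC and human leukocyte Cathepsin G (100 ng) in 50 mM NaOAc pH 6.6, 50 mM NaCl, 0.1% Brij 35; 60 min at 37° C. Stopped with 250 mM acetic acid; fluorescence ex 360/em 460 nm. Value is concentration giving 50% inhibition.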

The target in experiment [4] is T2, IL-8 (Homo sapiens, UniProt P10145).
T2 sequence (P10145 21-99): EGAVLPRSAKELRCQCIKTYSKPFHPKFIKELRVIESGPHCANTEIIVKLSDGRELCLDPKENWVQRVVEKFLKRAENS
Description: Biacore biosensor: inhibition of IL-8 binding to immobilised heparin and heparan sulfate. The settings on record: inhibitor 1.0 μM, IL-8 0.068 μM; for Inhibition of binding of IL-8 (HS): immobilised heparan sulfate; for Inhibition of binding of IL-8 (Hep): immobilised heparin. The procedure, abridged:
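Biacore 2000 with neutravidin-coupled CM5 chips capturing biotinylated heparin (1 μg/ml) or heparan sulfate. Compound and IL-8 preincubated 2 to 5 minutes before injection; binding to the immobilised glycosaminoglycan monitored for about 5 minutes.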

Experiment [5] addresses T3, VEGF (Homo sapiens, UniProt P15692).
T3 sequence (P15692 27-191 isoform P15692-4): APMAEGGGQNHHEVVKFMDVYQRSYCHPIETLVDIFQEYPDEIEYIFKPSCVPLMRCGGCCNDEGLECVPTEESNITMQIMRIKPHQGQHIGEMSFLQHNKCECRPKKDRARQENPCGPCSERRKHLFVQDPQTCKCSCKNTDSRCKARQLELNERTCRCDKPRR
Description: Biacore biosensor: inhibition of VEGF binding to immobilised heparin and heparan sulfate. The settings on record: inhibitor 0.034 μM, VEGF 0.025 μM; for Inhibition of binding of VEGF (HS): immobilised heparan sulfate; for Inhibition of binding of VEGF (Hep): immobilised heparin. The procedure, abridged: as §1

The target in experiment [6] is aFGF (Homo sapiens, UniProt P05230). Description: Biacore biosensor: inhibition of aFGF binding to immobilised heparin and heparan sulfate. As to conditions: inhibitor 0.034 μM, aFGF 0.025 μM; for Inhibition of binding of aFGF (HS): immobilised heparan sulfate; for Inhibition of binding of aFGF (Hep): immobilised heparin. The procedure, abridged:
as §1

For experiment [7], the target named is T4, human platelet heparanase (Homo sapiens, UniProt Q9Y251).
T4 construct: 10 ng of purified human platelet heparanase; from tissue; host or cells: human platelets
T4 sequence (Q9Y251 158-543 limits assumed): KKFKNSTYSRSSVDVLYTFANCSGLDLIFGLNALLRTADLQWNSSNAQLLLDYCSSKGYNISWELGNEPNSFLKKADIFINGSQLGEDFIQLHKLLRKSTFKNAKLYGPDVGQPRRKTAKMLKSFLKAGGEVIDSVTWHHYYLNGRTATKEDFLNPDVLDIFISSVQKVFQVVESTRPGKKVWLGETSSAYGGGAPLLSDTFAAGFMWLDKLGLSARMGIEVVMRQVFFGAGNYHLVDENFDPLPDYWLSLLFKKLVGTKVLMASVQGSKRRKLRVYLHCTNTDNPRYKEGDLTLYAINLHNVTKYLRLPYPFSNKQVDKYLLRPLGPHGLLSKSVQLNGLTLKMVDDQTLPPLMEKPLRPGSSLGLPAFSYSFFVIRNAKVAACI
T4 sequence (Q9Y251 36-109 limits assumed): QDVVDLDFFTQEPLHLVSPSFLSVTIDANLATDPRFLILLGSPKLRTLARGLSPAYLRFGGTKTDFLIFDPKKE
Description: Heparanase inhibition, 3H-radiolabelled HS cleavage assay. As to conditions: for Relative inhibition (%): based on a comparison with heparin with 100% inhibition at 30 μg/ml; for EC50: heparanase inhibition. It is filed as biochemical. The procedure, abridged: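 Purified human platelet heparanase (10 ng) with ^3H-labelled porcine mucosal HS […] in 50 mM sodium acetate pH 5.0 plus BSA, 30 min; stopped by freezing. Products separated from substrate on histidine-rich glycoprotein–sepharose minicolumns; inhibition expressed relative to heparin at 30 μg/ml taken as 100%.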

Setting [8] is: means of 4 culture wells per experiment, * significant, ** highly significant inhibition.

Chain of bFGF (P09038 134-288 limits assumed, species assumed): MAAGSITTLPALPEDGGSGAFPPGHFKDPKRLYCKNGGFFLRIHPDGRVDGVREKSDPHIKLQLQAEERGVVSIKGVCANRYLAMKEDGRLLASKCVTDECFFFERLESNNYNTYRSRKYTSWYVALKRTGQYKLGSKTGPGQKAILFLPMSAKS
Chain of aFGF (P05230 whole entry, species assumed): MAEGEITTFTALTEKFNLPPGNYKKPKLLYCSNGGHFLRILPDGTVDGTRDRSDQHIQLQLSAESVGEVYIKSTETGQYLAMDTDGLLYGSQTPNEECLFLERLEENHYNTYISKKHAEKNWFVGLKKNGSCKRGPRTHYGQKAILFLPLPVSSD

Take `O=S(=O)(O)OC1C=CC(N(CCCCCCN(C2C=CC(OS(=O)(=O)O)C(OS(=O)(=O)O)C2OS(=O)(=O)O)C2C=CC(OS(=O)(=O)O)C(OS(=O)(=O)O)C2OS(=O)(=O)O)C2C=CC(OS(=O)(=O)O)C(OS(=O)(=O)O)C2OS(=O)(=O)O)C(OS(=O)(=O)O)C1OS(=O)(=O)O` (stereo not drawn) [Compound 4b]: in experiment [1] (setting [8]), the “% Growth” value was determined as 70%. Moreover, the “% Growth” value in experiment [1] (second entry, higher purity compound, * significant inhibition) is 65* %. For the same compound, the “Inhibition of binding of bFGF (HS)” value in experiment [2] (immobilised heparan sulfate) is 48% (HS). In addition, the “Inhibition of binding of bFGF (Hep)” value in experiment [2] (immobilised heparin) was 52% (Hep). For the same compound, the “Amount for 50% inhibition” value in experiment [3] is 0.22 µg/mL. In experiment [4], the “Inhibition of binding of IL-8 (HS)” value was 48% (HS) and the “Inhibition of binding of IL-8 (Hep)” value is on record as 55% (Hep). In experiment [5], the “Inhibition of binding of VEGF (HS)” value is 32% (HS) and the “Inhibition of binding of VEGF (Hep)” value was 45% (Hep). In experiment [6], the “Inhibition of binding of aFGF (HS)” value is 47% (HS) and the “Inhibition of binding of aFGF (Hep)” value is on record as 44% (Hep). Further, in experiment [7], the “Relative inhibition (%)” value is listed as 45% and the EC50 was determined as 40 µg/mL (≈ 25.2 µM).

In the case of `O=S(=O)(O)OC1C=CC(N(Cc2cccc(CN(C3C=CC(OS(=O)(=O)O)C(OS(=O)(=O)O)C3OS(=O)(=O)O)C3C=CC(OS(=O)(=O)O)C(OS(=O)(=O)O)C3OS(=O)(=O)O)c2)C2C=CC(OS(=O)(=O)O)C(OS(=O)(=O)O)C2OS(=O)(=O)O)C(OS(=O)(=O)O)C1OS(=O)(=O)O` (stereo not drawn) [Compound 4d], the “% Growth” value in experiment [1] (setting [8]) was 67%. In addition, in experiment [2] (immobilised heparan sulfate), the “Inhibition of binding of bFGF (HS)” value is 68% (HS). The IC50 in experiment [2] (immobilised heparan sulfate, read-out: IC50, inhibition of bFGF binding (HS)) was 23 nM. In addition, the “Inhibition of binding of bFGF (Hep)” value in experiment [2] (immobilised heparin) was 52% (Hep). In addition, the concentration for half-maximal inhibition (IC50) in experiment [2] (immobilised heparin, read-out: IC50, inhibition of bFGF binding (Hep)) was 32 nM. For the same compound, the “Amount for 50% inhibition” value in experiment [3] stood at 0.43 µg/mL. Besides, in experiment [4], the “Inhibition of binding of IL-8 (HS)” value is reported as 50% (HS) and the “Inhibition of binding of IL-8 (Hep)” value is listed as 57% (Hep). Moreover, in experiment [5], the “Inhibition of binding of VEGF (HS)” value is 40% (HS) and the “Inhibition of binding of VEGF (Hep)” value is given as 44% (Hep). Further, in experiment [6], the “Inhibition of binding of aFGF (HS)” value was 65% (HS) and the “Inhibition of binding of aFGF (Hep)” value is reported as 65% (Hep). Besides, in experiment [7], the “Relative inhibition (%)” value was found to be 75% and the EC50 was found to be 15 µg/mL (≈ 9.32 µM).

Turning to `O=S(=O)(O)OC1C=CC(N(Cc2ccc(CN(C3C=CC(OS(=O)(=O)O)C(OS(=O)(=O)O)C3OS(=O)(=O)O)C3C=CC(OS(=O)(=O)O)C(OS(=O)(=O)O)C3OS(=O)(=O)O)cc2)C2C=CC(OS(=O)(=O)O)C(OS(=O)(=O)O)C2OS(=O)(=O)O)C(OS(=O)(=O)O)C1OS(=O)(=O)O` (stereo not drawn) [Compound 4e], in experiment [1] (setting [8]), the “% Growth” value is on record as 55* %. In addition, the “Inhibition of binding of bFGF (HS)” value in experiment [2] (immobilised heparan sulfate) is listed as 61% (HS). In addition, the “Inhibition of binding of bFGF (Hep)” value in experiment [2] (immobilised heparin) was 49% (Hep). Moreover, in experiment [3], the “Amount for 50% inhibition” value was 0.30 µg/mL. In experiment [4], the “Inhibition of binding of IL-8 (HS)” value is on record as 65% (HS) and the “Inhibition of binding of IL-8 (Hep)” value is 62% (Hep). In addition, in experiment [5], the “Inhibition of binding of VEGF (HS)” value is listed as 51% (HS) and the “Inhibition of binding of VEGF (Hep)” value is recorded as 63% (Hep). In addition, in experiment [6], the “Inhibition of binding of aFGF (HS)” value was 63% (HS) and the “Inhibition of binding of aFGF (Hep)” value was 66% (Hep). In addition, in experiment [7], the “Relative inhibition (%)” value was found to be 70% and the EC50 was 9 µg/mL (≈ 5.59 µM).

For the compound `O=S(=O)(O)OC(CN([C@H]1[C@H](OS(=O)(=O)O)[C@H](OS(=O)(=O)O)[C@@H](OS(=O)(=O)O)[C@@H](OS(=O)(=O)O)[C@@H]1OS(=O)(=O)O)[C@H]1[C@H](OS(=O)(=O)O)[C@H](OS(=O)(=O)O)[C@@H](OS(=O)(=O)O)[C@@H](OS(=O)(=O)O)[C@@H]1OS(=O)(=O)O)CN([C@H]1[C@H](OS(=O)(=O)O)[C@H](OS(=O)(=O)O)[C@@H](OS(=O)(=O)O)[C@@H](OS(=O)(=O)O)[C@@H]1OS(=O)(=O)O)[C@H]1[C@H](OS(=O)(=O)O)[C@H](OS(=O)(=O)O)[C@@H](OS(=O)(=O)O)[C@@H](OS(=O)(=O)O)[C@@H]1OS(=O)(=O)O` [Compound 5l], the “% Growth” value in experiment [1] (setting [8]) came out at 80%. Also, in experiment [2] (immobilised heparan sulfate), the “Inhibition of binding of bFGF (HS)” value is given as 43% (HS). Moreover, the “Inhibition of binding of bFGF (Hep)” value in experiment [2] (immobilised heparin) was 33% (Hep). Also, in experiment [3], the “Amount for 50% inhibition” value stood at 0.53 µg/mL. In experiment [4], the “Inhibition of binding of IL-8 (HS)” value is given as 42% (HS) and the “Inhibition of binding of IL-8 (Hep)” value is recorded as 52% (Hep). For the same compound, in experiment [5], the “Inhibition of binding of VEGF (HS)” value is 11% (HS) and the “Inhibition of binding of VEGF (Hep)” value is listed as 13% (Hep). In addition, in experiment [6], the “Inhibition of binding of aFGF (HS)” value is recorded as 54% (HS) and the “Inhibition of binding of aFGF (Hep)” value was 67% (Hep). Besides, in experiment [7], the “Relative inhibition (%)” value stood at 85% and the EC50 came to 12 µg/mL (≈ 4.96 µM).

As usually defined, the EC50 is the midpoint of the concentration-response curve. Usually IC50 stands for the concentration that inhibits the measured activity by half.

(Values after patent US7173019B2, “Linked cyclitols and their polysulfated derivatives” (The Australian National University, priority 2001, dated 2007).)
